# Legend:
# [1] = tested on: deoxymyoglobin (deoxy-Mb); experiment: Release of CO from metal carbonyl complexes (myoglobin assay / CO electrode); format: physicochemical
# Procedure: The release of CO from metal carbonyl complexes was assessed spectrophotometrically by measuring the conversion of deoxymyoglobin (deoxy-Mb) to carbonmonoxymyoglobin (MbCO). MbCO has a distinctive absorption spectrum between 500 and 600 nm, and changes at 540 nm were used to quantify the amount of CO liberated. Myoglobin solutions were prepared freshly by dissolving a known concentration of the protein in phosphate buffer, which was also made up to a known concentration and pH. Sodium dithionite (0.1%) was added to convert myoglobin to deoxy-Mb prior to each reading. The CORM was dissolved in the solvent specified in the solubility column of the table of FIGS. 1a-1k, before addition to the myoglobin solution.
# The release of CO from metal carbonyl complexes was also detected using a prototype electrode purchased from World Precision Instrument (Stevenage, Herts, UK). The CO electrode is a membrane-covered amperometric sensor which has been designed on a basic operating principle similar to the nitric oxide (NO) sensor. In fact, the CO sensor can be connected to the ISO-NO Mark II meter for detection of the current signals providing that the poise potential is set to a different value (900 mV for CO as opposed to 860 mV for NO). In principle, CO diffuses through the gas permeable membrane and is then oxidized to CO2 on the working electrode. This oxidation will create a current whose magnitude can be related directly to the concentration of CO in solution. The CO sensor was used to generate standard curves and calculate the rates of CO release from a CORM compound at different pHs and temperatures. The electrode was immersed into the solutions at different pHs and equilibrated for 30 min prior to addition of the CORM compound. The experiments were maintained at the desired temperature using a Grant W6 thermostat (Cambridge). This method is described in the applicants' earlier publication WO 2005/114161.
# Slow release rates (half-life >200 minutes) are indicated for the comparative compounds, while rapid release rates (half-life <50 minutes) were found for compounds within the invention. […] Compounds having three carbonyl ligands released CO slowly, as did compounds in which a carbon or a nitrogen atom of the ligand bond to the manganese. Slow release is also found for the compound (CORM 325) having Mn—Mn bonding.
# [2] = Solubility information; format: physicochemical
# Excerpt: Uncharged complexes, such as CORM 378, can be made water soluble by the presence of suitable ligands.
# [3] = tested on: RAW264.7 macrophages; experiment: Anti-inflammatory action in LPS-stimulated RAW264.7 macrophages (nitrite, Griess method); format: cell-based, mouse; conditions: 24 h, 10, 50 or 100 μM compound, LPS 1 μg/ml
# Procedure: (2) The anti-inflammatory action was measured in RAW264.7 macrophages incubated for 24 h with 10, 50 or 100 μM of each compound in the presence or absence of Lipopolysaccharide (LPS) (1 μg/ml). Nitrite was used as an indicator of inflammation. * indicates a reduction in inflammation detected at 100 μM; ** indicates a reduction in inflammation detected at 50 μM; *** indicates a reduction in inflammation detected at 10 μM; “None” indicates there was no effect of the compound on inflammation; N.P. indicates assay not performed.
# Murine RAW264.7 monocyte macrophages were purchased from the European Collection of Cell Cultures (Salisbury, Wiltshire, UK) and cultured in Dulbecco's modified Eagle's medium (DMEM) supplemented' with 10% fetal bovine serum, 2 mM L-glutamine, 100 units ml^−1 penicillin and 0.1 mg ml^−1 streptomycin. […] Macrophages were exposed for 24 hr to LPS (1 μg ml^−) in the presence or absence of CORMs (10, 50 and 100 μM) and nitrite levels and cytotoxicity were determined at the end of the incubation. Nitrite levels were determined using the Griess method as previously described (Foresti et al. J. Biol. Chem. 272, 18411-18417, (1997)). […] The Griess reagent was added to each well to begin the reaction, the plate was shaken for 10 min and the absorbance read at 550 nm on a Molecular Devices VERSAmax plate reader. […]
# [4] = tested on: isolated aortic rings; experiment: Vasorelaxation of pre-contracted isolated rat aortic rings; parameters: species or system Sprague-Dawley rats; conditions: for Contraction of pre-contracted aortic rings after addition of compound: varying concentrations, FIG. 3(a), 3(b)
# Procedure: (3) The experiments using the isolated aortic rings were conducted to assess the extent of vasorelaxation. One hundred micromolar (100 μM) of each compound were added to a pre-contracted ring and vasorelaxation was assessed as a percentage of the initial contraction, which was expressed as good (+) or very good (++).
# Vasodilatation data for CORM 371 and CORM 376 was measured as described previously by the inventors in their earlier publication, WO 2004/045599. This is described in more detail below.
# The method for the preparation of isolated aortic rings has been previously described (Sammut et al Br J Pharmacol 125: 1437-1444, 1998; Motterlini et al Circ Res 90: E17-E24, 2002). The thoracic aorta was isolated from Sprague-Dawley rats (350-450 g) and flushed with cold Krebs-Henseleit buffer (4° C., pH 7.4) containing (in mM): 118 NaCl, 4.7 KCl, […], 1.2 MgSO4.7H2O, 22 NaHCO3, 11 Glucose, 0.03 K^+EDTA, 2.5 CaCl2 and supplemented with 10 μM indomethacin. Each aorta was trimmed of adventitial tissue and ring, sections (˜3 mm length) were produced from the mid aortic segment. The rings were then mounted between two stainless steel hooks in 9-mL organ baths containing Krebs-Henseleit buffer which was maintained at 37° C. and continuously gassed with 95% O2-5% CO2. One hook was attached to a Grass FT03 isometric force transducer whilst the other was anchored to a sledge for regulation of the resting tension of the aortic ring. The rings were initially equilibrated for 30 min under a resting tension of 2 g which was previously determined to be optimal. Continuous recording of tension was made on a Grass 7D polygraph (Grass Instruments, Quincy, Mass.) in combination with a Biopac MP100 system using AcqKnowledge™ software (Linton Instruments, Norfolk, UK). Before each protocol was carried out, rings were contracted with a standard dose of KCl (100 mM) in order to provide an internal reference and to control for variability in contractile responsiveness between tissues. The relaxation response to CORM-3 (25 μM) in the presence or absence of YC-1 (5 μM final concentration, 30 min pre-incubation) was assessed in aortic rings pre-contracted with phenylephrine (1 μmol/L).
molecule,measurement,setting,value
"O=[C]=[Mn]([Br])(=[C]=O)(=[C]=O)(=[C]=O)=[C]=O [CORM 309, [MnBr(CO)5]]",CO release rate (in words),[1],much longer CO release times
"O=[C]=[Mn]([I])(=[C]=O)(=[C]=O)(=[C]=O)=[C]=O [CORM 310, [MnI(CO)5]]",CO release rate (in words),[1],much longer CO release times
"[C-]#[O+].[C-]#[O+].[C-]#[O+].[C-]#[O+].[C-]#[O+].[Cl][Mn] [CORM 318, [MnCl(CO)5]]",CO release rate (in words),[1],much longer CO release times
"[C-]#[O+].[C-]#[O+].[C-]#[O+].[C-]#[O+].[C-]#[O+].[C-]#[O+].[C-]#[O+].[C-]#[O+].c1ccc([PH]([Mn][Mn][PH](c2ccccc2)(c2ccccc2)c2ccccc2)(c2ccccc2)c2ccccc2)cc1 [CORM 325, [Mn(CO)4(PPh3)]2]",CO release rate (in words),[1],Slow release
"OCCN(CCO)C(=S)[S-].[C-]#[O+].[C-]#[O+].[C-]#[O+].[C-]#[O+].[Mn+] [CORM 378, Mn(CO)4(η^2-S2CN{CH2CH2OH}2)]",Solubility in water,[2],water soluble
"C[N+](C)(C)C.O=C([O-])c1ccccc1.O=C([O-])c1ccccc1.O=C([O-])c1ccccc1.[C-]#[O+].[C-]#[O+].[C-]#[O+].[C-]#[O+].[C-]#[O+].[C-]#[O+].[Mn+].[Mn+] [CORM 379, [Me4N][Mn2(CO)6(benzoate)3]]",Anti-inflammatory action (nitrite as indicator of inflammation),[3],did not do so
same,CO release rate (in words),[1],rapid CO release
"CC(=O)[S-].CC(=O)[S-].C[N+](C)(C)C.[C-]#[O+].[C-]#[O+].[C-]#[O+].[C-]#[O+].[Mn+] [CORM-371, [Me4N][Mn(CO)4(thioacetate)2]]",Vasodilator activity in the aortic rings model,[4],good vasodilators
same,Contraction of pre-contracted aortic rings after addition of compound,[4],concentration-dependent decrease in contraction
[K][(OC)3Mn(μ-OCOCH3)3Mn(CO)3] [CORM-376],Vasodilator activity in the aortic rings model,[4],good vasodilators
same,Dilatation in presence of glibenclimide (inhibition of ATP-dependent K+ channels),"[4]; glibenclimide at two different concentrations, FIG. 3(c)",did not affect
same,Contraction of pre-contracted aortic rings after addition of compound,[4],concentration-dependent decrease in contraction
same,Vasorelaxation in presence of guanylate cyclase inhibitor ODQ,"[4]; with ODQ, FIG. 3(c)",significantly prevented
[Me4N][Mn(CO)4(Malonate)] [CORM 350],Anti-inflammatory action (nitrite as indicator of inflammation),[3],did not do so
same,CO release rate (in words),[1],rapid CO release
